# According to US20240279207A1, “SUBSTITUTED ACYL SULFONAMIDES FOR TREATING CANCER” (The Broad Institute, Inc., priority 2020, published 2024):
# What was measured:
# [1] = system: ESR1 transcription in MVLN cells; assay: MVLN reporter assay: repression of ESR1 transcription (luciferase signal); type: cell-based; details: Homo sapiens, MVLN, 24 h, luciferase signal after 24 h, read-out: MVLN reporter assay, IC50 [M] (arithmetic mean)
# From the text: KAT6A controls transcription of the ESR1 gene in breast cancer cells. Compound treatment that interferes with this mechanism was quantified using MVLN cells. These cells constitutively express the ER and are stably transfected with the luciferase (LUC) reporter gene and the corresponding hormone responsive element derived from the 5′-flanking region of the Xenopus Vitellogenin A2 gene (Pons et al., 1990, Demirpense et al., 1993, Joyeux et al., 1993). The repressive effect on ERα transcription activity of a test chemical is directly related to the luciferase measured in the lysate of treated MVLN cells. […] Each sample was prepared as duplicate and rim wells were excluded. For luciferase signal determination 100 μl of a 1:1 mixture of Steadylite plus (Perkin Elmer; 6016759) and assay medium was added after 24 h for 15 minutes and measured in Victor X3 (Perkin Elmer). To exclude any effects caused by cell loss during the treatment, cell density was determined using Alamar Blue (Invitrogen; DAL1100). Prior to the luciferase measurement 10 μl Alamar Blue were added to each well and the plates were incubated for 2 h in the incubator. Then fluorescence was measured with Victor X3 (Perkin Elmer) at 530 nm/590 nm.
# [2] = biological target: T1, Recombinant human His-tagged Kat6a protein (amino acids 194-810) (Homo sapiens, UniProt Q92794); assay: Kat6a activity assay (TR-FRET, acetylation of Histone-H4-derived peptide); type: biochemical; details: 60 mins at 22° C., 220 nM H4 peptide, 600 nM Acetyl Coenzyme A, read-out: KAT6A - DPF/HAT domain IC50 [mol/l] (arithmetic mean)
# T1 construct: Kat6a protein (amino acids 194-810); His
# Procedure: Kat6a inhibitory activities of the compounds described in the present invention were quantified using a Fluorescence Resonance Energy Transfer (TR-FRET) assay which measures acetylation of a synthetic, biotinylated Histone-H4-derived peptide by the enzyme.
# In this case 50 nl DMSO were used instead of compounds. […] IC50 values were determined by regression analysis based on a 4 parameter equation (minimum, maximum, ICM, Hill; Y=Max+(Min−Max)/(1+(X/ICso) Hill) using the Screener Software (Genedata).
# T1 sequence (Q92794 194-810): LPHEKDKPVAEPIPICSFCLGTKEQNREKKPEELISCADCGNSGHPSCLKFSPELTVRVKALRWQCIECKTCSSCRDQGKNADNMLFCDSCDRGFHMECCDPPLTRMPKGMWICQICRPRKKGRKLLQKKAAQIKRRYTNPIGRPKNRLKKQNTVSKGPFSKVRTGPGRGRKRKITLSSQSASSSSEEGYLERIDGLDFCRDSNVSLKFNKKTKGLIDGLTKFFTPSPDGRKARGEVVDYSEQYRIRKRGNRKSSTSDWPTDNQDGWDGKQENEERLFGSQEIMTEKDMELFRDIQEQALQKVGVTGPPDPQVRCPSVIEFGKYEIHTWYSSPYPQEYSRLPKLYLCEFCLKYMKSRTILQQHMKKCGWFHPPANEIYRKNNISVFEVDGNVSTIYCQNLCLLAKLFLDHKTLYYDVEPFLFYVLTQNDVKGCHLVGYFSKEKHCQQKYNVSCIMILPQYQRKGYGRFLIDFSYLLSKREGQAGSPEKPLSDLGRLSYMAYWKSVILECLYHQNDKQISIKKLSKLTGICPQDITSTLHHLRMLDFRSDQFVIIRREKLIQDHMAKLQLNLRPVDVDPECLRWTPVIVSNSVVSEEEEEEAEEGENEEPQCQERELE
IC50 [1] [M],IC50 [2] [nM],Structure (SMILES)
2.98e-07,55.1,"CC1(C)Cc2cccc(S(=O)(=O)NC(=O)c3cc4c(F)cc(N5CCC5)cc4o3)c2O1 [Example 21, 6-(Azetidin-1-yl)-N-(2,2-dimethyl-2,3-dihydro-1-benzofuran-7-sulfonyl)-4-fluoro-1-benzofuran-2-carboxamide]"
3.19e-07,34,"O=C(NS(=O)(=O)c1ccccc1I)c1cc2c(F)cc(N3CCC3)cc2o1 [Example 22, 6-(Azetidin-1-yl)-4-fluoro-N-(2-iodobenzene-1-sulfonyl)-1-benzofuran-2-carboxamide]"
2.72e-07,28.6,"CCOc1cccc(C(C)C)c1S(=O)(=O)NC(=O)c1cc2c(F)cc(N3CCC3)cc2o1 [Example 23, 6-(Azetidin-1-yl)-N-[2-ethoxy-6-(propan-2-yl)benzene-1-sulfonyl]-4-fluoro-1-benzofuran-2-carboxamide]"
3e-07,46.7,"O=C(NS(=O)(=O)c1c(F)cccc1C1CCC1)c1cc2c(F)cc(N3CCC3)cc2o1 [Example 24, 6-(Azetidin-1-yl)-N-(2-cyclobutyl-6-fluorobenzene-1-sulfonyl)-4-fluoro-1-benzofuran-2-carboxamide]"
3.26e-07,148,"CCOc1cccc(C)c1S(=O)(=O)NC(=O)c1cc2c(F)cc(N3CCC3)cc2o1 [Example 25, 6-(Azetidin-1-yl)-N-(2-ethoxy-6-methylbenzene-1-sulfonyl)-4-fluoro-1-benzofuran-2-carboxamide]"
3.54e-07,49.6,"COc1ccc(Cl)c(C)c1S(=O)(=O)NC(=O)c1cc2c(F)cc(N3CCC3)cc2o1 [Example 27, 6-(Azetidin-1-yl)-N-(3-chloro-6-methoxy-2-methylbenzene-1-sulfonyl)-4-fluoro-1-benzofuran-2-carboxamide]"
3.56e-07,136,"CC(C)Oc1cccc(C(F)(F)F)c1S(=O)(=O)NC(=O)c1cc2c(F)cc(N3CCC3)cc2o1 [Example 28, 6-(Azetidin-1-yl)-4-fluoro-N-{2-[(propan-2-yl)oxy]-6-(trifluoromethyl)benzene-1-sulfonyl}-1-benzofuran-2-carboxamide]"
3.79e-07,49.7,"CC(C)Oc1cccc(Cl)c1S(=O)(=O)NC(=O)c1cc2c(F)cc(N3CCC3)cc2o1 [Example 29, 6-(Azetidin-1-yl)-N-{2-chloro-6-[(propan-2-yl)oxy]benzene-1-sulfonyl}-4-fluoro-1-benzofuran-2-carboxamide]"
4.18e-07,24.7,"CC(C)c1ccc(C(C)C)c(S(=O)(=O)NC(=O)c2cc3c(F)cc(N4CCC4)cc3o2)c1 [Example 30, 6-(Azetidin-1-yl)-N-[2,5-di(propan-2-yl)benzene-1-sulfonyl]-4-fluoro-1-benzofuran-2-carboxamide]"
5.02e-07,34.9,"CCCOc1cccc(CCC)c1S(=O)(=O)NC(=O)c1cc2c(F)cc(N3CCC3)cc2o1 [Example 31, 6-(Azetidin-1-yl)-4-fluoro-N-(2-propoxy-6-propylbenzene-1-sulfonyl)-1-benzofuran-2-carboxamide]"
5.11e-07,34.2,"Cc1ccc(C(C)C)cc1S(=O)(=O)NC(=O)c1cc2c(F)cc(N3CCC3)cc2o1 [Example 32, 6-(Azetidin-1-yl)-4-fluoro-N-[2-methyl-5-(propan-2-yl)benzene-1-sulfonyl]-1-benzofuran-2-carboxamide]"
5.37e-07,73.5,"CCc1cccc(OCC2CC2)c1S(=O)(=O)NC(=O)c1cc2c(F)cc(N3CCC3)cc2o1 [Example 33, 6-(Azetidin-1-yl)-N-[2-(cyclopropylmethoxy)-6-ethylbenzene-1-sulfonyl]-4-fluoro-1-benzofuran-2-carboxamide]"
5.79e-07,59.6,"CCc1ccc(C)c(S(=O)(=O)NC(=O)c2cc3c(F)cc(N4CCC4)cc3o2)c1 [Example 34, 6-(Azetidin-1-yl)-N-(5-ethyl-2-methylbenzene-1-sulfonyl)-4-fluoro-1-benzofuran-2-carboxamide]"
6.09e-07,42.1,"Cc1ccc(S(=O)(=O)NC(=O)c2cc3c(F)cc(N4CCC4)cc3o2)c(OC(F)F)c1 [Example 35, 6-(Azetidin-1-yl)-N-[2-(difluoromethoxy)-4-methylbenzene-1-sulfonyl]-4-fluoro-1-benzofuran-2-carboxamide]"
6.04e-07,367,"CCc1csc(C)c1S(=O)(=O)NC(=O)c1cc2c(F)cc(N3CCC3)cc2o1 [Example 36, 6-(Azetidin-1-yl)-N-(4-ethyl-2-methylthiophene-3-sulfonyl)-4-fluoro-1-benzofuran-2-carboxamide]"
7.04e-07,181,"Cc1noc(-c2ccccc2S(=O)(=O)NC(=O)c2cc3c(F)cc(N4CCC4)cc3o2)n1 [Example 37, 6-(Azetidin-1-yl)-4-fluoro-N-[2-(3-methyl-1,2,4-oxadiazol-5-yl)benzene-1-sulfonyl]-1-benzofuran-2-carboxamide]"
7.07e-07,85.5,"CC(C)c1cc(Br)ccc1S(=O)(=O)NC(=O)c1cc2c(F)cc(N3CCC3)cc2o1 [Example 38, 6-(Azetidin-1-yl)-N-[4-bromo-2-(propan-2-yl)benzene-1-sulfonyl]-4-fluoro-1-benzofuran-2-carboxamide]"
7.89e-07,64.2,"CCCc1cccc(S(=O)(=O)NC(=O)c2cc3c(F)cc(N4CCC4)cc3o2)c1 [Example 40, 6-(Azetidin-1-yl)-4-fluoro-N-(3-propylbenzene-1-sulfonyl)-1-benzofuran-2-carboxamide]"
8.57e-07,90.1,"Cn1ccc2cccc(S(=O)(=O)NC(=O)c3cc4c(F)cc(N5CCC5)cc4o3)c21 [Example 41, 6-(Azetidin-1-yl)-4-fluoro-N-(1-methyl-1H-indole-7-sulfonyl)-1-benzofuran-2-carboxamide]"
8.64e-07,179,"CC(C)Nc1cccc(F)c1S(=O)(=O)NC(=O)c1cc2c(F)cc(N3CCC3)cc2o1 [Example 42, 6-(Azetidin-1-yl)-4-fluoro-N-{2-fluoro-6-[(propan-2-yl)amino]benzene-1-sulfonyl}-1-benzofuran-2-carboxamide]"
9.91e-07,218,"Cc1ccc(F)c(S(=O)(=O)NC(=O)c2cc3c(F)cc(N4CCC4)cc3o2)c1 [Example 43, 6-(Azetidin-1-yl)-4-fluoro-N-(2-fluoro-5-methylbenzene-1-sulfonyl)-1-benzofuran-2-carboxamide]"
1.01e-06,189,"CCc1noc(-c2ccccc2S(=O)(=O)NC(=O)c2cc3c(F)cc(N4CCC4)cc3o2)n1 [Example 44, 6-(Azetidin-1-yl)-N-[2-(3-ethyl-1,2,4-oxadiazol-5-yl)benzene-1-sulfonyl]-4-fluoro-1-benzofuran-2-carboxamide]"
1.1e-06,111,"O=C(NS(=O)(=O)c1ccccc1S(=O)(=O)c1ccccc1)c1cc2c(F)cc(N3CCC3)cc2o1 [Example 45, 6-(Azetidin-1-yl)-N-[2-(benzenesulfonyl)benzene-1-sulfonyl]-4-fluoro-1-benzofuran-2-carboxamide]"
1.15e-06,122,"CCNc1ccccc1S(=O)(=O)NC(=O)c1cc2c(F)cc(N3CCC3)cc2o1 [Example 46, 6-(azetidin-1-yl)-N-[2-(ethylamino)benzene-1-sulfonyl]-4-fluoro-1-benzofuran-2-carboxamide]"
1.3e-06,109,"CCN(C)C(=O)c1ccccc1S(=O)(=O)NC(=O)c1cc2c(F)cc(N3CCC3)cc2o1 [Example 47, 6-(Azetidin-1-yl)-N-{2-[ethyl(methyl)carbamoyl]benzene-1-sulfonyl}-4-fluoro-1-benzofuran-2-carboxamide]"
1.29e-06,281,"COCc1cccc(S(=O)(=O)NC(=O)c2cc3c(F)cc(N4CCC4)cc3o2)c1 [Example 48, 6-(Azetidin-1-yl)-4-fluoro-N-[3-(methoxymethyl)benzene-1-sulfonyl]-1-benzofuran-2-carboxamide]"
1.41e-06,67.3,"CC(C)Nc1ccc(Cl)cc1S(=O)(=O)NC(=O)c1cc2c(F)cc(N3CCC3)cc2o1 [Example 49, 6-(Azetidin-1-yl)-N-{5-chloro-2-[(propan-2-yl)amino]benzene-1-sulfonyl}-4-fluoro-1-benzofuran-2-carboxamide]"
1.42e-06,98.7,"O=C(NS(=O)(=O)c1c(F)cccc1NC1CC1)c1cc2c(F)cc(N3CCC3)cc2o1 [Example 50, 6-(Azetidin-1-yl)-N-[2-(cyclopropylamino)-6-fluorobenzene-1-sulfonyl]-4-fluoro-1-benzofuran-2-carboxamide]"
1.51e-06,189,"CN(C)C(=O)c1ccccc1S(=O)(=O)NC(=O)c1cc2c(F)cc(N3CCC3)cc2o1 [Example 51, 6-(Azetidin-1-yl)-N-[2-(dimethylcarbamoyl)benzene-1-sulfonyl]-4-fluoro-1-benzofuran-2-carboxamide]"
